The values below come from patent US8835411B2, “HIV integrase inhibitors” (priority 2010, dated 2014).

This assay has as its system recombinant NL-Rluc virus. In words: Inhibition of HIV Replication: recombinant NL-Rluc virus, Renilla luciferase reporter. The note with it: read-out: Cell Culture, serum condition of the table not stated (10% FBS, 15 mg/ml human serum albumin/10% FBS or 40% human serum/5% FBS), at least 2 experiments. Type of assay: cell-based. On the technique in general: In a reporter assay the amount or activity of a reporter protein is the signal.

For `CC(=O)NC12CCC(NC(=O)C(=O)N(C)C)(CC1)c1nc(C(=O)NCc3ccc(F)c(C)c3)c(O)c(=O)n1C2` [Example 90], the EC50 is under 10 nM.
